How the values were obtained:
Type in all cases: physicochemical
[1] = Specific surface area (SSA) by BET sorptometry
Procedure: As used herein, the “specific surface area” is the total surface area of the sorafenib particle per unit of sorafenib mass as measured by the Brunauer—Emmett—Teller (“BET”) isotherm (i.e.: the BET SSA). As will be understood by those of skill in the art, the SSA is determined on a per gram basis and takes into account both agglomerated and non-agglomerated sorafenib particles in the composition. The BET specific surface area test procedure is a compendial method included in both the United States Pharmaceopeia and the European Pharmaceopeia.
(§1) Three precipitation runs (approximately 600-700 mg) were conducted on the RC612B precipitation unit, according to the examples provided on the preceding pages. Solvent was the single variable modified between each group of three precipitations. The precipitates were analyzed by laser diffraction to determine PSD, BET sorptometry to determine SSA, SEM to determine habit and support PSD and SSA data, and PXRD to determine crystalline/amorphous form.
SSA determination analyses were conducted on a Quantachrome NOVAtouch™ LX^2 BET Sorptometer or a Porous Materials, Inc., Automated BET Sorptometer BET-202A according to the manufacturer instructions.

[2] = Particle size distribution (PSD) by laser diffraction, Malvern Mastersizer 3000
Procedure: as §1
PSD analyses were conducted on a Malvern Mastersizer™ 3000 using the Aero S dispersion unit according to the manufacturer instructions.

[3] = Shake-flask solubility in organic solvent/water mixtures; conditions: for Concentration of Sorafenib Found: 24 hours, 20-25° C.
Procedure: This method was conducted in acidic media. Development of a discriminating dissolution method at neutral pH (6.8 to 7.4) was pursued, as relevant for potential intra-tumoral delivery of the drug. The addition of organic solvents was used to increase the solubility of the compounds at neutral pH.
Solubility was determined by using a shake-flask method. The drug was added in excess to each solution prepared in duplicate. The vials were placed on a mechanical shaker for 24 hours at 20-25° C. After shaking, solution was removed and filtered through a 0.2 μm PTFE syringe filter and analyzed by UV/Visible spectrophotometry.

SSA ([1]; listed as Raw): 1.02 m^2/g
SSA ([1]; listed as unprocessed material): 0.88 m^2/g
PSD: Volume Dv-10 [2]: 12.3 μm
Concentration of Sorafenib Found ([3]; Ethanol, water to organic solvent ratio 25/75): 553 µg/mL
Concentration of Sorafenib Found ([3]; Ethanol, water to organic solvent ratio 50/50): 325 µg/mL
Concentration of Sorafenib Found ([3]; Methanol, water to organic solvent ratio 25/75): 503 µg/mL
Concentration of Sorafenib Found ([3]; Methanol, water to organic solvent ratio 50/50): 41.4 µg/mL
Concentration of Sorafenib Found ([3]; Methanol, water to organic solvent ratio 75/25): 2.45 µg/mL
Solubility versus organic solvent concentration ([3]; methanol/water and ethanol/water, both solvents): concentration dependent solubility
Compound: CNC(=O)c1cc(Oc2ccc(NC(=O)Nc3ccc(Cl)c(C(F)(F)F)c3)cc2)ccn1 [Sorafenib, 4-(4-((((4-Chloro-3-(trifluoromethyl)phenyl)amino)carbonyl)amino)phenoxy)-N-methyl-2-pyridinecarboxamide]

— patent US20230364021A1 (CRITITECH, INC., priority 2020, published 2023)
